The assay has as its system Pank1,2 neural knockout mice. Briefly: Open field test in Pank1,2 neural knockout mice. It counts as in vivo. As to conditions: 22.5 ppm in chow from postnatal day 14; postnatal day 45.

Protocol: The mice were maintained at 72°±2° F., humidity 50%±10% and a 14-hour light/10-hour dark cycle with the dark cycle starting at 20:00 hrs. Water was supplied ad libitum. […] The mice were randomized into the treatment arms. […] Each animal was placed in the center of the arena under standard overhead lighting and the total distance traveled and the percentage of time in motion were recorded.

Take `O=C(Cc1ccc(C2CC2)c(F)c1)N1CCN(c2ccc(Cl)nn2)CC1` [Compound (I), 1-(4-(6-chloropyridazin-3-yl)piperazin-1-yl)-2-(4-cyclopropyl-3-fluorophenyl)ethan-1-one]: the “Movement in open field” value is recorded as “some improvement in movement”.

(Values after patent US20260183283A1 (priority 2022, published 2026).)
